Key:
[1] = target: T1, C-X-C chemokine receptor type 1 (Homo sapiens, UniProt P25024); further: in other assays of this panel Not Active means under 50% inhibition at 10 µM
T1 sequence (P25024 whole entry): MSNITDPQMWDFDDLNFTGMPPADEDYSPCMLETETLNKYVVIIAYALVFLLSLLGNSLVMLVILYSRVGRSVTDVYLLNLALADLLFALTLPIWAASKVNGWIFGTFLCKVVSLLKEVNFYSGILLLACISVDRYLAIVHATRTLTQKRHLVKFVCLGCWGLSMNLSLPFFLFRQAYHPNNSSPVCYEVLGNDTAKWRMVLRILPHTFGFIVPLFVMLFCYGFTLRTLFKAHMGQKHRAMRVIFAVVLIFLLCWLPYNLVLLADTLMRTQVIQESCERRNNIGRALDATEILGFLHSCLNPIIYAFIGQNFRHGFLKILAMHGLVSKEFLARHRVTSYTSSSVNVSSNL

[2] = DRUGMATRIX: Potassium Channel [KATP] radioligand binding (ligand: [3H] Glyburide); type: cell membranes, Membrane; conditions: hit-t15; Not Active = under 50% inhibition at 10 µM
[3] = DRUGMATRIX: Imidazoline I2, Central radioligand binding (ligand: [3H] Idazoxan); type: cell membranes, Rattus norvegicus, Wistar, Cerebral cortex, Membrane; conditions: Not Active = under 50% inhibition at 10 µM
Substance-P receptor = Substance-P receptor (Homo sapiens, UniProt P25103); type: cell membranes, CHO, Membrane; conditions: cho; further: in other assays of this panel Not Active means under 50% inhibition at 10 µM
[4] = target: Voltage-gated inwardly rectifying potassium channel KCNH2 (Homo sapiens, UniProt Q12809); conditions: hek293; further: in other assays of this panel Not Active means under 50% inhibition at 10 µM
Insulin receptor = Insulin receptor (Rattus norvegicus, UniProt P15127); type: cell membranes, Wistar, Liver, Membrane; further: in other assays of this panel Not Active means under 50% inhibition at 10 µM
Nitric oxide synthase 1 = Nitric oxide synthase 1 (Rattus norvegicus, UniProt P29476); type: tissue-based, Cerebellum; further: in other assays of this panel Not Active means under 50% inhibition at 10 µM
Chain of Nitric oxide synthase 1 (P29476 whole entry): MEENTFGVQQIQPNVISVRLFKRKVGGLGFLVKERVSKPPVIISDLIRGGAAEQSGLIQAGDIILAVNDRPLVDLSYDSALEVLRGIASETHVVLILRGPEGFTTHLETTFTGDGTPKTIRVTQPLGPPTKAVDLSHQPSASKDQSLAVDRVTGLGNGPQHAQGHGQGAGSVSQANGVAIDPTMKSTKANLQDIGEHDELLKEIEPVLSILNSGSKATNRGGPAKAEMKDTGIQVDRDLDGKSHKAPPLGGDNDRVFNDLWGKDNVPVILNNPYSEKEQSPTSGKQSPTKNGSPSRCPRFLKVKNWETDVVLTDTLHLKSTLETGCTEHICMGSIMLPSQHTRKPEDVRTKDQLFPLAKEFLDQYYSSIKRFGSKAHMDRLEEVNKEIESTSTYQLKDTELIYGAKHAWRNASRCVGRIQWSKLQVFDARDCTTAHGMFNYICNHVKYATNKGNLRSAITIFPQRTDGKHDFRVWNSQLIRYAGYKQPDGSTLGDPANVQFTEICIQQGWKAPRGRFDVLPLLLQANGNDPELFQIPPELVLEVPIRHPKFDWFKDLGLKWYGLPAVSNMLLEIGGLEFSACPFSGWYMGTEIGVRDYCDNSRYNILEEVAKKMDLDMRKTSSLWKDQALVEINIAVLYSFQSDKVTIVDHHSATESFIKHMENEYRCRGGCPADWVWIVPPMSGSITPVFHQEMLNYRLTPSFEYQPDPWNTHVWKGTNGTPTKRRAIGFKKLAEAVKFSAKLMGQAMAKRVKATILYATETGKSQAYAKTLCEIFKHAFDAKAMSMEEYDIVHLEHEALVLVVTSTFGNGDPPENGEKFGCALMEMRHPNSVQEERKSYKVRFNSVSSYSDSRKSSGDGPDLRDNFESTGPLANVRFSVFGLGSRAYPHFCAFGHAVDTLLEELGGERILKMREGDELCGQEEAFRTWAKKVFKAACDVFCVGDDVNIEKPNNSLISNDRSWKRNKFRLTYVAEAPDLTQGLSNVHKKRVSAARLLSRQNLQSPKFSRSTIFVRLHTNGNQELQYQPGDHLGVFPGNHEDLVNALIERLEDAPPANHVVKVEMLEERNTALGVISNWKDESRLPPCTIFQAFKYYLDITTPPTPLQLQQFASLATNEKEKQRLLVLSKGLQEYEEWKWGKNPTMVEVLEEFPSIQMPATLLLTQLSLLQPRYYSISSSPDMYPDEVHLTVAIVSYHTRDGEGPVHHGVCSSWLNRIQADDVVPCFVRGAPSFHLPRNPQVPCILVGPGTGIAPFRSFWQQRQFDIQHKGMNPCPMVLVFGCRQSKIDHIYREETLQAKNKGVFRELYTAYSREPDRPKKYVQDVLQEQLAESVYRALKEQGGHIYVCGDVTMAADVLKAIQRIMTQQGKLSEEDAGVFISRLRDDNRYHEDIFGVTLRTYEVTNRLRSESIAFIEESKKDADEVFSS

Chain of Substance-P receptor (P25103 whole entry): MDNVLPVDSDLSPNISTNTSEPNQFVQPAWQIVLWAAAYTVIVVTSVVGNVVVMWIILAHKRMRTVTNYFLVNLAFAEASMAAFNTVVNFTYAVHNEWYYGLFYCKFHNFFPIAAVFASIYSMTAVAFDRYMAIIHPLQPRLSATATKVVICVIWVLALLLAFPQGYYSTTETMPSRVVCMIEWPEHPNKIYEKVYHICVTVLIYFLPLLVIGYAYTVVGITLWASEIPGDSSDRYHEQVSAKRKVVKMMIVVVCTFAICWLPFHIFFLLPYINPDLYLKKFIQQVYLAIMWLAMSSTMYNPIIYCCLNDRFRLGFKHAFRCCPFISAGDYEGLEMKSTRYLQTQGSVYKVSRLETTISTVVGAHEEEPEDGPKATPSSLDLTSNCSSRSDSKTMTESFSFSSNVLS
Chain of Insulin receptor (P15127 27-759 limits assumed): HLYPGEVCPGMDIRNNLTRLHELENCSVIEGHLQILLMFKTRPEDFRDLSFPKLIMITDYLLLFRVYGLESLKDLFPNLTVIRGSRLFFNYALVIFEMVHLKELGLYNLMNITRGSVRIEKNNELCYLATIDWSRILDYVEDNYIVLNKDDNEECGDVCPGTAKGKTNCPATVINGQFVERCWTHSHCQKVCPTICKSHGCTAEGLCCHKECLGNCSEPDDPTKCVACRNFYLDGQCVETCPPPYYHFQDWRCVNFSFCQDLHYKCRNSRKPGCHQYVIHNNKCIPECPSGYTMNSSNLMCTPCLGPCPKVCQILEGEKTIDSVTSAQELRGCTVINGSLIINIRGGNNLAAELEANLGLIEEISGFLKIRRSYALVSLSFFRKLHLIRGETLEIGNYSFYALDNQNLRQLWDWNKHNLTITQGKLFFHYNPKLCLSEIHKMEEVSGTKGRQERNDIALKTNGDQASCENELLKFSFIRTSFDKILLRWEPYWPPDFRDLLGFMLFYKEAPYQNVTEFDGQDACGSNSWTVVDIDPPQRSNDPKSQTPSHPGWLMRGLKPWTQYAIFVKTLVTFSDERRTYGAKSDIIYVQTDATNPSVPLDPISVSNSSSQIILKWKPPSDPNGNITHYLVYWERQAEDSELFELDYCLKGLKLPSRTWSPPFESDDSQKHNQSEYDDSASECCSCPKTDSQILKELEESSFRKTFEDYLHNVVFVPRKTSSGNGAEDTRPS
Chain of Insulin receptor (P15127 764-1383 limits assumed): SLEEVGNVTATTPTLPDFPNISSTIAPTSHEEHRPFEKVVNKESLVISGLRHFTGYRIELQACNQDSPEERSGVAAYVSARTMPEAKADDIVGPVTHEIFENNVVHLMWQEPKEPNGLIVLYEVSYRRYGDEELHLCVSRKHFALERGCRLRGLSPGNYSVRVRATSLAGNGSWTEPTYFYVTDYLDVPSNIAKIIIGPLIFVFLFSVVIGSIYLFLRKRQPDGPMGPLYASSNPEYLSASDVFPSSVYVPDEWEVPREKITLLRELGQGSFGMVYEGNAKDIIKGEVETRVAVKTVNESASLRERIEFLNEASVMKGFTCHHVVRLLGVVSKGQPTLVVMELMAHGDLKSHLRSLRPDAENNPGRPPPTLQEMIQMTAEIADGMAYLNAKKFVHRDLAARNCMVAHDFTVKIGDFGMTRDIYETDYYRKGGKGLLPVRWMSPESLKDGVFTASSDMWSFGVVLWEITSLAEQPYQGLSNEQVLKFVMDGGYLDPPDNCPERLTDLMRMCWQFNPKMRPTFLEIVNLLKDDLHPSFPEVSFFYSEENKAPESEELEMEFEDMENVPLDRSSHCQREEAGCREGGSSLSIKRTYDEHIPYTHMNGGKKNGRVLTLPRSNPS
Chain of Voltage-gated inwardly rectifying potassium channel KCNH2 (Q12809 whole entry): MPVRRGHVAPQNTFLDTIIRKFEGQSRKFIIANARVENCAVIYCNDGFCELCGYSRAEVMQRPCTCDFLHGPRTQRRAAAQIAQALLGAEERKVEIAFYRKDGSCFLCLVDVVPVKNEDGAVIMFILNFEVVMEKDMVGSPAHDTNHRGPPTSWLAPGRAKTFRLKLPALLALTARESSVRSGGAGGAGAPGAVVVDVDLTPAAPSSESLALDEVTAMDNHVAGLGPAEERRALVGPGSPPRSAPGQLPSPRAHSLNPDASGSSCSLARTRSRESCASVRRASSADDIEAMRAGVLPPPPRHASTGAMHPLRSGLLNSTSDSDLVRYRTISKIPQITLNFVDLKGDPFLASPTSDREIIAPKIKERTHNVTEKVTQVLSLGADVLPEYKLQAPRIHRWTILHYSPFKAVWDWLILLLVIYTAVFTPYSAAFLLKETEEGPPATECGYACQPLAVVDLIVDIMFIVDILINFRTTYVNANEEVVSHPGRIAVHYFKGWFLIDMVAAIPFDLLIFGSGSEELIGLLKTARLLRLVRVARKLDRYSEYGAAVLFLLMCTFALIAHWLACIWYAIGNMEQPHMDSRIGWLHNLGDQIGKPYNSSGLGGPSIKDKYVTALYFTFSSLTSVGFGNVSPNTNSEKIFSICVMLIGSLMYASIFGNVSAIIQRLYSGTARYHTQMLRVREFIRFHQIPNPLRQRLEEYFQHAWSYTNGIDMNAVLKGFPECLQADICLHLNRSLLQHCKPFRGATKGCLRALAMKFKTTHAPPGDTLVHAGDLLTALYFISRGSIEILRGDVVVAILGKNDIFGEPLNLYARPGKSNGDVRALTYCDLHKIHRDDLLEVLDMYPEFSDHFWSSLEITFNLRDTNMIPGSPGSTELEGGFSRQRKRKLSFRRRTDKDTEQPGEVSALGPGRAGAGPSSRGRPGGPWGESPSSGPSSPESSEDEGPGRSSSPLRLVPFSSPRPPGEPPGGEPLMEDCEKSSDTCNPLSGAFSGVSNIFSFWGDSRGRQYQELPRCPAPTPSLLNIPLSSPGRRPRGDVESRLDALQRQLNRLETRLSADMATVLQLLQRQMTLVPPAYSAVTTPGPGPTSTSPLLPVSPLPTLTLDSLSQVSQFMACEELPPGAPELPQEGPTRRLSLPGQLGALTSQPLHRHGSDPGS

Compound: C[C@@H]1C/C=C/C=C/C=C/C=C/[C@H](O[C@@H]2O[C@H](C)[C@@H](O)[C@H](N)[C@@H]2O)C[C@@H]2O[C@](O)(C[C@@H](O)C[C@H]3O[C@@H]3/C=C/C(=O)O1)C[C@H](O)[C@H]2C(=O)O [NATAMYCIN]
- IC50 [1]: Not Active
- IC50 [2]: Not Active
- Ki [2]: Not Active
- IC50 [3]: Not Active
- Ki [3]: Not Active
- IC50 (Substance-P receptor): Not Active
- IC50 [4]: Not Active
- Ki [4]: Not Active
- IC50 (Insulin receptor): Not Active
- IC50 (Nitric oxide synthase 1): Not Active

Compound: C[C@H]1O[C@H](O[C@H]2[C@H](O)[C@@H](O)[C@@H](O[C@H]3[C@H](O)[C@@H](O)C(O)O[C@@H]3CO)O[C@@H]2CO)[C@H](O)[C@@H](O)[C@@H]1N[C@H]1C=C(CO)[C@@H](O)[C@H](O)[C@H]1O (stereo not given in full) [ACARBOSE]
- IC50 [1]: Not Active
- IC50 [2]: Not Active
- Ki [2]: Not Active
- IC50 [3]: Not Active
- Ki [3]: Not Active
- IC50 (Substance-P receptor): Not Active
- IC50 [4]: Not Active
- Ki [4]: Not Active
- IC50 (Insulin receptor): Not Active
- IC50 (Nitric oxide synthase 1): Not Active

Compound: CN(C)C(=N)NC(=N)N [METFORMIN]
- IC50 [1]: Not Active
- IC50 [2]: Not Active
- Ki [2]: Not Active
- IC50 [3]: Not Active
- Ki [3]: Not Active
- IC50 (Substance-P receptor): Not Active
- IC50 [4]: Not Active
- Ki [4]: Not Active
- IC50 (Insulin receptor): Not Active
- IC50 (Nitric oxide synthase 1): Not Active

Compound: CCc1ccc(CCOc2ccc(CC3SC(=O)NC3=O)cc2)nc1 (stereo not given) [PIOGLITAZONE]
- IC50 [1]: Not Active
- IC50 [2]: Not Active
- Ki [2]: Not Active
- IC50 [3]: Not Active
- Ki [3]: Not Active
- IC50 (Substance-P receptor): Not Active
- IC50 [4]: Not Active
- Ki [4]: Not Active
- IC50 (Insulin receptor): Not Active
- IC50 (Nitric oxide synthase 1): Not Active

Compound: CN1CCN(C(c2ccccc2)c2ccccc2)CC1 [CYCLIZINE]
- IC50 [1]: Not Active
- IC50 [2]: Not Active
- Ki [2]: Not Active
- IC50 ([3]; read-out: IC50): 3130 nM
- Ki ([3]; read-out: Ki): 2090 nM
- IC50 (Substance-P receptor): Not Active
- IC50 [4]: Not Active
- Ki [4]: Not Active
- IC50 (Insulin receptor): Not Active
- IC50 (Nitric oxide synthase 1): Not Active

Compound: Cn1c(=O)c2c(ncn2C)n(C)c1=O [CAFFEINE]
- IC50 [1]: Not Active
- IC50 [2]: Not Active
- Ki [2]: Not Active
- IC50 [3]: Not Active
- Ki [3]: Not Active
- IC50 (Substance-P receptor): Not Active
- IC50 [4]: Not Active
- Ki [4]: Not Active
- IC50 (Insulin receptor): Not Active
- IC50 (Nitric oxide synthase 1): Not Active

Compound: COc1cc(OC)c(C(=O)CCCN2CCCC2)c(OC)c1 [BUFLOMEDIL]
- IC50 [1]: Not Active
- IC50 [2]: Not Active
- Ki [2]: Not Active
- IC50 [3]: Not Active
- Ki [3]: Not Active
- IC50 (Substance-P receptor): Not Active
- IC50 [4]: Not Active
- Ki [4]: Not Active
- IC50 (Insulin receptor): Not Active
- IC50 (Nitric oxide synthase 1): Not Active

Compound: C[C@]12CC[C@H]3[C@@H](CCC4=CC(=O)CC[C@@H]43)[C@@H]1CC[C@@H]2O [NANDROLONE]
- IC50 [1]: Not Active
- IC50 [2]: Not Active
- Ki [2]: Not Active
- IC50 [3]: Not Active
- Ki [3]: Not Active
- IC50 (Substance-P receptor): Not Active
- IC50 [4]: Not Active
- Ki [4]: Not Active
- IC50 (Insulin receptor): Not Active
- IC50 (Nitric oxide synthase 1): Not Active

Compound: CS(=O)(=O)Nc1ccc([N+](=O)[O-])cc1Oc1ccccc1 [NIMESULIDE]
- IC50 [1]: Not Active
- IC50 [2]: Not Active
- Ki [2]: Not Active
- IC50 [3]: Not Active
- Ki [3]: Not Active
- IC50 (Substance-P receptor): Not Active
- IC50 [4]: Not Active
- Ki [4]: Not Active
- IC50 (Insulin receptor): Not Active
- IC50 (Nitric oxide synthase 1): Not Active

Compound: CN1CCC(=C2c3ccccc3CC(=O)c3sccc32)CC1 [KETOTIFEN]
- Ki [1]: Not Active
- IC50 [2]: Not Active
- Ki [2]: Not Active
- IC50 [3]: Not Active
- Ki [3]: Not Active
- IC50 (Substance-P receptor): Not Active
- IC50 [4]: Not Active
- Ki [4]: Not Active
- IC50 (Insulin receptor): Not Active
- IC50 (Nitric oxide synthase 1): Not Active

Compound: NC12CC3CC(CC(C3)C1)C2 [AMANTADINE]
- IC50 [1]: Not Active
- IC50 [2]: Not Active
- Ki [2]: Not Active
- IC50 [3]: Not Active
- Ki [3]: Not Active
- IC50 (Substance-P receptor): Not Active
- IC50 [4]: Not Active
- Ki [4]: Not Active
- IC50 (Insulin receptor): Not Active
- IC50 (Nitric oxide synthase 1): Not Active

Compound: NC(=O)N1c2ccccc2CC(=O)c2ccccc21 [OXCARBAZEPINE]
- IC50 [1]: Not Active
- IC50 [2]: Not Active
- Ki [2]: Not Active
- IC50 [3]: Not Active
- Ki [3]: Not Active
- IC50 (Substance-P receptor): Not Active
- IC50 [4]: Not Active
- Ki [4]: Not Active
- IC50 (Insulin receptor): Not Active
- IC50 (Nitric oxide synthase 1): Not Active
